Source: ChEMBL document CHEMBL1909046, “DrugMatrix in vitro pharmacology data”

Columns and labels:
[1] = target: T1, Alpha-1B adrenergic receptor (Rattus norvegicus, UniProt P15823); assay: DRUGMATRIX: Alpha-1B adrenergic receptor radioligand binding (ligand: prazosin); type: cell membranes, Wistar, Liver, Membrane; conditions: Not Active = under 50% inhibition at 10 µM; for Ki: read-out: Ki
T1 sequence (P15823 whole entry): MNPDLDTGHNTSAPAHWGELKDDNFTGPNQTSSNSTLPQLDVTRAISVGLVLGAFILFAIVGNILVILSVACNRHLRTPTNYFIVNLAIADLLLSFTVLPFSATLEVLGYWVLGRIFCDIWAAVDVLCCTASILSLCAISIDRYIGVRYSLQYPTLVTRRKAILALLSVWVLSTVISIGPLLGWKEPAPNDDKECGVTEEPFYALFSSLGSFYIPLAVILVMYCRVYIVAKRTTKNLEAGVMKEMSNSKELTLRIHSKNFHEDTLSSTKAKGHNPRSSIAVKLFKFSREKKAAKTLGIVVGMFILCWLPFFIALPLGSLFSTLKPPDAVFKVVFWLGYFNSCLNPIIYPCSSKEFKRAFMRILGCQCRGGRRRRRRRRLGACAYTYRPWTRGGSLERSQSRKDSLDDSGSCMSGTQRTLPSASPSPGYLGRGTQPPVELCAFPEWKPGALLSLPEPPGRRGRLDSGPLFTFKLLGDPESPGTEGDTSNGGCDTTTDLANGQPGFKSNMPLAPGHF

[2] = target: Beta-1 adrenergic receptor (Homo sapiens, UniProt P08588); assay: DRUGMATRIX: Adrenergic beta1 radioligand binding (ligand: [125I] Cyanopindolol); type: cell membranes, CHO-K1, Membrane; conditions: cho-k1; Not Active = under 50% inhibition at 10 µM
Beta-1 adrenergic receptor, sequence (P08588 whole entry): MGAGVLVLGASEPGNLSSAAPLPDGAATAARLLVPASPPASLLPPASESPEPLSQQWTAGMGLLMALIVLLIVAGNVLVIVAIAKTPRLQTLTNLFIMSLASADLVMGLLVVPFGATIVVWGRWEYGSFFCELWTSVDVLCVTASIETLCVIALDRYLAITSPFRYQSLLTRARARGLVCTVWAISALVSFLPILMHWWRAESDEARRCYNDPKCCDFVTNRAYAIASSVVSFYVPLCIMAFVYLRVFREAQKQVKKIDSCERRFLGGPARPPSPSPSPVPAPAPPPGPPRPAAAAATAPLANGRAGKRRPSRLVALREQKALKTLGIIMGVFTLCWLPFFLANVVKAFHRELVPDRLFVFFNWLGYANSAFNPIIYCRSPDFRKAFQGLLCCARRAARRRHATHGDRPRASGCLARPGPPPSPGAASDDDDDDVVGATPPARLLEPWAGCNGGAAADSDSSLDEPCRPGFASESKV

Insulin receptor = Insulin receptor (Rattus norvegicus, UniProt P15127); type: cell membranes, Wistar, Liver, Membrane; further: in other assays of this panel Not Active means under 50% inhibition at 10 µM
Insulin receptor, sequence (P15127 27-759 limits assumed): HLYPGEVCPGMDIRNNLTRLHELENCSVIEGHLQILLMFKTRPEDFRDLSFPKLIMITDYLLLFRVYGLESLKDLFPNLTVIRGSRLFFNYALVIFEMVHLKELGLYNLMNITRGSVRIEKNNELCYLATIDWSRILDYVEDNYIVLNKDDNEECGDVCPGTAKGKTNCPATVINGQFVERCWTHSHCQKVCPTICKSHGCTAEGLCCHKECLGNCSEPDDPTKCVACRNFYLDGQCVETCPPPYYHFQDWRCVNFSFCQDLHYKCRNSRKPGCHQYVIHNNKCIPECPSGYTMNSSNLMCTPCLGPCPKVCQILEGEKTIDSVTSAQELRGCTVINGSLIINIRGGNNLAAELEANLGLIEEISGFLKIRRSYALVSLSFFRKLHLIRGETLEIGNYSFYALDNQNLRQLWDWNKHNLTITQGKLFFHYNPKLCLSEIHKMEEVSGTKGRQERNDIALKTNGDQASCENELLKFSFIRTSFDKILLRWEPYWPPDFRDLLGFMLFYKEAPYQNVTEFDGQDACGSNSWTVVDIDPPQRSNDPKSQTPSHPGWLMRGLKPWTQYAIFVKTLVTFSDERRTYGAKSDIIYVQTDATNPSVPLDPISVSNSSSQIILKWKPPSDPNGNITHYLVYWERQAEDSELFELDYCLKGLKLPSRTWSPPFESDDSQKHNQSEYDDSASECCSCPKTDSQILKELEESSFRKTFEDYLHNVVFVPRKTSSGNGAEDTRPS
Insulin receptor, sequence (P15127 764-1383 limits assumed): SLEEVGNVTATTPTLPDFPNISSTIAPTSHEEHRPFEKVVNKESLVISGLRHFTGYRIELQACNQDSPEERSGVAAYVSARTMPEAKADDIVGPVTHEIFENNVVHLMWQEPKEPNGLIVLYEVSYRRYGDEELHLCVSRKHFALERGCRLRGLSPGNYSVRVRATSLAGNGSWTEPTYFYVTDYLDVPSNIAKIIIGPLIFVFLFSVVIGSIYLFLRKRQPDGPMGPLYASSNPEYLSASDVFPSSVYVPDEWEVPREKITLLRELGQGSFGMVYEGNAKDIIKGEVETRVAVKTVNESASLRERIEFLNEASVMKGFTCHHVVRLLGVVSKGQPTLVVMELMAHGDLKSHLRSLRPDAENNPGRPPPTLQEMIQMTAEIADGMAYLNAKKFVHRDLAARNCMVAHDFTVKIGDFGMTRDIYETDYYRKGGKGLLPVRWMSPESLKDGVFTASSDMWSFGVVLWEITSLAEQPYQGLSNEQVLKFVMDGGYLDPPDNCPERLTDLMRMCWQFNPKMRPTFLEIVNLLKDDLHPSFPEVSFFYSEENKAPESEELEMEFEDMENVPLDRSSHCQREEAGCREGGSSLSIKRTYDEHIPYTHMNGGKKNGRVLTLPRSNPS

[3] = DRUGMATRIX: Leukotriene, BLT (LTB4) radioligand binding (ligand: [3H]LTB4); type: cell membranes, Membrane; conditions: u-937, Not Active = under 50% inhibition at 10 µM
[4] = DRUGMATRIX: Phosphodiesterase PDE4 enzyme inhibition (substrate: [3H]cAMP + cAMP); conditions: u-937, Not Active = under 50% inhibition at 10 µM
Estrogen receptor = target: T2, Estrogen receptor (Homo sapiens, UniProt P03372); conditions: sf9; further: in other assays of this panel Not Active means under 50% inhibition at 10 µM
T2 sequence (P03372 whole entry): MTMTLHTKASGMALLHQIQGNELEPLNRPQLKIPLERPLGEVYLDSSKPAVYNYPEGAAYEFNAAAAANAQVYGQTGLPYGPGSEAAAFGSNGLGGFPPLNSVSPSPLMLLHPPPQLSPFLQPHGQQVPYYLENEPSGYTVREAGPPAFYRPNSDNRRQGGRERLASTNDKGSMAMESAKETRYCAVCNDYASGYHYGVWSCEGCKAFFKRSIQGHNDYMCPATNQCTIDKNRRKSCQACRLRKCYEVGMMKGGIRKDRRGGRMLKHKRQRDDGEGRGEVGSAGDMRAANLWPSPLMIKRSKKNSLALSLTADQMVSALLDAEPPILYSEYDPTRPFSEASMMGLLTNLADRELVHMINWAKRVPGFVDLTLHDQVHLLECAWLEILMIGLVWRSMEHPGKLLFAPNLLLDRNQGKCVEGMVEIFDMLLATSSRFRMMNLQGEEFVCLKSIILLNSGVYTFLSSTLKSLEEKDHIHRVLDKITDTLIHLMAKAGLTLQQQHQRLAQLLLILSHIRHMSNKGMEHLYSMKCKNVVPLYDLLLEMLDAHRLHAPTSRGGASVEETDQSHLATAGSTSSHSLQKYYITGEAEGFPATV

SMILES | IC50 ([1]; read-out: IC50) | Ki [1] | IC50 [2] | IC50 (Insulin receptor) | IC50 ([3]; read-out: IC50) | Ki ([3]; read-out: Ki) | IC50 [4] | Ki [4] | IC50 (Estrogen receptor) | IC50 [1] | IC50 [3] | Ki [3] | IC50 ([4]; read-out: IC50)
N=C(N)c1ccc(OCCCCCOc2ccc(C(=N)N)cc2)cc1 [PENTAMIDINE] | 967 nM | 535 nM | Not Active | Not Active | 242 nM | 61 nM | Not Active | Not Active | Not Active | – | – | – | –
CCOc1nc2cccc(C(=O)O)c2n1Cc1ccc(-c2ccccc2-c2nnn[nH]2)cc1 | – | – | Not Active | Not Active | – | – | – | – | Not Active | Not Active | Not Active | Not Active | 276 nM
CC(=O)Oc1ccccc1C(=O)O [ASPIRIN] | – | – | Not Active | Not Active | – | – | Not Active | Not Active | Not Active | Not Active | Not Active | Not Active | –
O=c1[nH]c(=O)n([C@H]2C[C@H](O)[C@@H](CO)O2)cc1F [FLOXURIDINE] | – | – | Not Active | Not Active | – | – | Not Active | Not Active | Not Active | Not Active | Not Active | Not Active | –
CCCCC1=NC2(CCCC2)C(=O)N1Cc1ccc(-c2ccccc2-c2nnn[nH]2)cc1 [IRBESARTAN] | – | – | Not Active | Not Active | – | – | Not Active | Not Active | Not Active | Not Active | Not Active | Not Active | –
CC(O)COC[C@H]1O[C@@H]2O[C@H]3[C@H](O)[C@@H](O)[C@@H](O[C@H]4[C@H](O)[C@@H](O)[C@@H](O[C@H]5[C@H](O)[C@@H](O)[C@@H](O[C@H]6[C@H](O)[C@@H](O)[C@@H](O[C@H]7[C@H](O)[C@@H](O)[C@@H](O[C@H]8[C@H](O)[C@@H](O)[C@@H](O[C@H]1[C@H](O)[C@H]2O)O[C@@H]8COCC(C)O)O[C@@H]7COCC(C)O)O[C@@H]6COCC(C)O)O[C@@H]5COCC(C)O)O[C@@H]4COCC(C)O)O[C@@H]3COCC(C)O (stereo partly drawn) [2-HYDROXYPROPYL-BETA-CYCLODEXTRIN] | – | – | Not Active | Not Active | – | – | Not Active | Not Active | Not Active | Not Active | Not Active | Not Active | –
N[C@@H](Cn1ccc(=O)c(O)c1)C(=O)O [L-MIMOSINE] | – | – | Not Active | Not Active | – | – | Not Active | Not Active | Not Active | Not Active | Not Active | Not Active | –
O=C(O)c1cc(-c2ccc(F)cc2F)ccc1O [DIFLUNISAL] | – | – | Not Active | Not Active | – | – | Not Active | Not Active | Not Active | Not Active | Not Active | Not Active | –
CN1CCN(C(c2ccccc2)c2ccccc2)CC1 [CYCLIZINE] | 2490 nM | 1380 nM | Not Active | Not Active | – | – | Not Active | Not Active | Not Active | – | Not Active | Not Active | –
CC(C)(C)NCC(O)COc1cccc2c1CC(O)C(O)C2 (configuration not stated) [NADOLOL] | – | – | Not Active | Not Active | – | – | Not Active | Not Active | Not Active | Not Active | Not Active | Not Active | –
CCCNC(=O)NS(=O)(=O)c1ccc(Cl)cc1 [CHLORPROPAMIDE] | – | – | Not Active | Not Active | – | – | Not Active | Not Active | Not Active | Not Active | Not Active | Not Active | –
Nc1cc(-c2ccncc2)c[nH]c1=O [INAMRINONE] | – | – | Not Active | Not Active | – | – | Not Active | Not Active | Not Active | Not Active | Not Active | Not Active | –
